Legend:
Format in all cases: functional
[1] = system: U-251; assay: Cytotoxicity against human U251 cells after 48 hrs by SRB assay; conditions: U-251, 48 h, read-out: pGI50 (converted)
[2] = system: LOX IMVI; assay: Cytotoxicity against human LOXIMVI cells after 48 hrs by SRB assay
[3] = system: Malme-3M; assay: Cytotoxicity against human MALME-3M cells after 48 hrs by SRB assay
[4] = system: M14; assay: Cytotoxicity against human M14 cells after 48 hrs by SRB assay; conditions: M14, 48 h
[5] = system: MDA-MB-435; assay: Cytotoxicity against human MDA-MB-435 cells after 48 hrs by SRB assay; conditions: MDA-MB-435, 48 h
[6] = system: SK-MEL-2; assay: Cytotoxicity against human SK-MEL-2 cells after 48 hrs by SRB assay; conditions: SK-MEL-2, 48 h
[7] = system: SK-MEL-28; assay: Cytotoxicity against human SK-MEL-28 cells after 48 hrs by SRB assay; conditions: SK-MEL-28, 48 h
[8] = system: SK-MEL-5; assay: Cytotoxicity against human SK-MEL-5 cells after 48 hrs by SRB assay; conditions: SK-MEL-5, 48 h, read-out: pGI50 (converted)
[9] = system: UACC-257; assay: Cytotoxicity against human UACC257 cells after 48 hrs by SRB assay; conditions: UACC-257, 48 h
[10] = system: UACC-62; assay: Cytotoxicity against human UACC62 cells after 48 hrs by SRB assay; conditions: UACC-62, 48 h
[11] = system: IGROV-1; assay: Cytotoxicity against human IGROV1 cells after 48 hrs by SRB assay; conditions: IGROV-1, 48 h, read-out: pGI50 (converted)
[12] = system: OVCAR-3; assay: Cytotoxicity against human OVCAR3 cells after 48 hrs by SRB assay; conditions: OVCAR-3, 48 h
[13] = system: OVCAR-4; assay: Cytotoxicity against human OVCAR4 cells after 48 hrs by SRB assay; conditions: OVCAR-4, 48 h
[14] = system: OVCAR-5; assay: Cytotoxicity against human OVCAR5 cells after 48 hrs by SRB assay; conditions: OVCAR-5, 48 h
[15] = system: OVCAR-8; assay: Cytotoxicity against human OVCAR8 cells after 48 hrs by SRB assay; conditions: OVCAR-8, 48 h, read-out: pGI50 (converted)
[16] = Cytotoxicity against human NCI-ADR-RES cells after 48 hrs by SRB assay
[17] = system: SK-OV-3; assay: Cytotoxicity against human SKOV3 cells after 48 hrs by SRB assay; conditions: SK-OV-3, 48 h
[18] = Cytotoxicity against human 786-O cells after 48 hrs by SRB assay; conditions: 786-0, 48 h
[19] = system: A498; assay: Cytotoxicity against human A498 cells after 48 hrs by SRB assay; conditions: A498, 48 h
[20] = system: ACHN; assay: Cytotoxicity against human ACHN cells after 48 hrs by SRB assay
[21] = system: CAKI-1; assay: Cytotoxicity against human Caki1 cells after 48 hrs by SRB assay; conditions: CAKI-1, 48 h
[22] = system: RXF 393; assay: Cytotoxicity against human RXF393 cells after 48 hrs by SRB assay; conditions: RXF 393, 48 h
[23] = system: SN12C; assay: Cytotoxicity against human SN12C cells after 48 hrs by SRB assay
[24] = system: TK-10; assay: Cytotoxicity against human TK10 cells after 48 hrs by SRB assay; conditions: TK-10, 48 h
[25] = system: UO-31; assay: Cytotoxicity against human UO31 cells after 48 hrs by SRB assay; conditions: UO-31, 48 h
[26] = system: PC-3; assay: Cytotoxicity against human PC3 cells after 48 hrs by SRB assay; conditions: PC-3, 48 h
[27] = system: DU-145; assay: Cytotoxicity against human DU145 cells after 48 hrs by SRB assay; conditions: DU-145, 48 h
[28] = system: MCF7; assay: Cytotoxicity against human MCF7 cells after 48 hrs by SRB assay; conditions: MCF7, 48 h
[29] = system: MDA-MB-231; assay: Cytotoxicity against human MDA-MB-231 cells after 48 hrs by SRB assay; conditions: MDA-MB-231, 48 h
[30] = system: Hs-578T; assay: Cytotoxicity against human Hs578T cells after 48 hrs by SRB assay
[31] = system: BT-549; assay: Cytotoxicity against human BT549 cells after 48 hrs by SRB assay; conditions: BT-549, 48 h
[32] = system: T47D; assay: Cytotoxicity against human T47D cells after 48 hrs by SRB assay

CO[C@H](C(=O)C(C)=O)[C@@H]1Cc2cc3cc(O[C@H]4C[C@@H](O[C@H]5C[C@@H](O)[C@H](O)[C@@H](C)O5)[C@H](O)[C@@H](C)O4)c(C)c(O)c3c(O)c2C(=O)[C@H]1O[C@H]1C[C@@H](O[C@H]2C[C@@H](O[C@H]3C[C@H](O)[C@H](O)[C@@H](C)O3)[C@H](O)[C@@H](C)O2)[C@H](O)[C@@H](C)O1
GI50 [1]: 17.4 nM | GI50 [2]: 13.5 nM | GI50 [3]: 34.7 nM | GI50 [4]: 36.3 nM | GI50 [5]: 25.1 nM | GI50 [6]: 15.1 nM | GI50 [7]: 20.9 nM | GI50 [8]: 22.4 nM | GI50 [9]: 58.9 nM | GI50 [10]: 13.5 nM | GI50 [11]: 23.4 nM | GI50 [12]: 19.9 nM | GI50 [13]: 72.4 nM | GI50 [14]: 30.9 nM | GI50 [15]: 25.7 nM | GI50 [16]: 1660 nM | GI50 [17]: 25.1 nM | GI50 [18]: 25.1 nM | GI50 [19]: 47.9 nM | GI50 [20]: 74.1 nM | GI50 [21]: 126 nM | GI50 [22]: 13.5 nM | GI50 [23]: 24.6 nM | GI50 [24]: 85.1 nM | GI50 [25]: 126 nM | GI50 [26]: 22.9 nM | GI50 [27]: 25.1 nM | GI50 [28]: 19.9 nM | GI50 ([29]; read-out: GI50): 63 nM | GI50 ([29]; read-out: pGI50 (converted)): 66.1 nM | GI50 [30]: 16.2 nM | GI50 [31]: 13.5 nM | GI50 [32]: 33.9 nM

— ChEMBL document CHEMBL2150933 (J Med Chem, 2012)
